Experimental data from patent publication US20230382916A1, “HETEROARYL HETEROCYCLIC COMPOUNDS AND USES THEREOF” (HUTCHISON MEDIPHARMA LIMITED, priority 2020, published 2023).
pIC50: −log10 of the molar value.

How the values were obtained:
BTK recombinant protein = BTK recombinant protein (Homo sapiens (Human), UniProt Q06187); test: Determination of biochemical BTK (Z'-LYTE kinase assay); conditions: 32 μM ATP
From the text: BTK recombinant protein: Invitrogen, Cat #PV3363;
Z′-LYTE® kinase test kit-tyrosine 1 peptide: Invitrogen, Cat #PV3190;
Z′-LYTE® biochemical assay employs a fluorescence resonance energy transfer (FRET)-based, coupled-enzyme format and is based on the differential sensitivity of phosphorylated and non-phosphorylated peptides to proteolytic cleavage. Both ends of the short peptide substrate are labeled with two fluorescent groups to form a FRET paired combination. In the primary reaction (the Kinase Reaction), the kinase transfers the γ-phosphate of ATP to a single […] residue on the short peptide substrate. In the secondary reaction (the development reaction), the non-phosphorylated short peptides were recognized and cleaved by a site-specific protease (the development reagent). Phosphorylated short peptides can resist such cleavage. Cleavage of short peptides can disrupt the donor (such as coumarin) and receptor fluorophores (fluorescein) on the short peptides, while the phosphorylated short peptides can maintain FRET. The calculation method of the ratio is as follows, and the ratio of the respective emission signals generated by the donor fluorophores emitted (after excitation at 400 nm) to the receptors is calculated. Emission signal ratio=emitted light by coumarin (445 nm)/emitted light by fluorescein (520 nm). If the FRET short peptide is phosphorylated (such as no kinase inhibitor), the emitted light ratio will remain in a lower level. If the FRET short peptide is non-phosphorylated (such as kinase inhibitor), the emitted light ratio will be in a higher level. In this way, the inhibitory effects of different compound inhibitors on BTK kinase activity would be distinguished.
The experiment was carried out according to the instructions of the Z′-LYTE® kinase test kit-tyrosine 1 peptide. Reagent preparation: 1.33× kinase buffer: 5× kinase buffer was diluted with water to 1.33× kinase buffer; an enzyme solution: the kinase was dissolved in 1.33× kinase buffer with the final working concentration being 3.32 nM; a short peptide solution: a short peptide stock solution (1 mM dissolved in DMSO) was dissolved in 1.33× kinase buffer with the final working concentration being 2 μM; Z′-LYTE Tyr01 phosphorylated short peptide solution, 0.6 μl of stock solution (1 mM dissolved in DMSO) was dissolved in 149.4 μl of 1.33× kinase buffer; an ATP solution: an ATP stock solution (10 mM aqueous solution) was dissolved in 1.33× kinase buffer with the final working concentration being 32 μM; a color-developing solution: color-developing solution B was dissolved in color-developing buffer with the final working concentration being 1× color-developing solution; 4× compound preparation: the compound was diluted in 3-fold gradient concentration to finally obtain 4% DMSO aqueous solution containing different concentrations of the compound, with the final working concentration being 3000, 1000, 333.33, 111.11, 37.04, 12.35, 4.12, 1.37 nM, 8 concentration points in total.
Specific steps of the experiment: In the experiment, there were three control groups, each with 8 replicate wells, which were C1 100% inhibition group (no ATP), C2 0% inhibition group (with ATP), and C3 100% phosphorylation group, respectively. 2.5 μl of serially diluted compound was added to each well of a 384-well plate, with double replicate wells, and 4% DMSO solution was added to wells C1, C2, and C3. After that, except for wells C3, 2.5 μl of BTK enzyme solution was added to each remaining well, which was left to stand at 4° C. for 30 minutes. After that, except for wells C3, 2.5 μl of short peptide solution was added to each well, and 5 μl of phosphorylated short peptide solution was added to each of wells C3. 2.5 μl of 1.33× kinase buffer was added to each of wells C1 and C3, and 2.5 μl of ATP solution was added to each of the remaining wells. The wells were centrifuged transiently, and the plate was shaken at 1000 rpm for 30 seconds to perform transient centrifuge. […]

[1] = tested on: idiopathic thrombocytopenic purpura induced by anti-mouse CD41 antibodies; test: Idiopathic thrombocytopenic purpura induced by anti-CD41 antibody in mice, level of platelets; type: in vivo; conditions: 40 mg/kg oral single dose
Experimental: Male C57BL/6 mice were purchased from Shanghai Lingchang Biotechnology Co., Ltd. (certificate number 20180003011079, initial body weight of 18-20 grams), and were randomly grouped according to Table 4, with 8 mice in each group. […] When modeling, each mouse was intraperitoneally injected with 200 μL of PBS solution containing […] of anti-mouse CD41 antibodies (BD, Cat #: 553487, Lot #: 7026765).
Eight hours and twenty-four hours after modeling, the whole blood was collected and placed in a centrifuge tube coated with 10% citrate-phosphate-dextrose-adenine (CPDA), and the level of platelets (PLT) in the whole blood was measured by an XT-2000i (SYSMEX) automatic blood analyzer (Shanghai Laboratory Animal Research Centre Sino-British SIPPR/B & K Lab Animal Ltd).
The average level of platelets in peripheral blood was analyzed with Graphpad statistical software by one way ANOVA followed by Fisher LSD multiple comparison test, and the p value was calculated, wherein *p<0.05 indicated a statistically significant difference compared with the vehicle control group, **p<0.01 indicated a statistically extremely significant difference compared with the vehicle control group, and ##p<0.01 indicated a statistically extremely significant difference compared with the normal group.
RR %=(PLTtreatment−PLTmodel)/(PLTnaive−PLTmodel)×100%.

BTK recombinant protein, sequence (Q06187 whole entry): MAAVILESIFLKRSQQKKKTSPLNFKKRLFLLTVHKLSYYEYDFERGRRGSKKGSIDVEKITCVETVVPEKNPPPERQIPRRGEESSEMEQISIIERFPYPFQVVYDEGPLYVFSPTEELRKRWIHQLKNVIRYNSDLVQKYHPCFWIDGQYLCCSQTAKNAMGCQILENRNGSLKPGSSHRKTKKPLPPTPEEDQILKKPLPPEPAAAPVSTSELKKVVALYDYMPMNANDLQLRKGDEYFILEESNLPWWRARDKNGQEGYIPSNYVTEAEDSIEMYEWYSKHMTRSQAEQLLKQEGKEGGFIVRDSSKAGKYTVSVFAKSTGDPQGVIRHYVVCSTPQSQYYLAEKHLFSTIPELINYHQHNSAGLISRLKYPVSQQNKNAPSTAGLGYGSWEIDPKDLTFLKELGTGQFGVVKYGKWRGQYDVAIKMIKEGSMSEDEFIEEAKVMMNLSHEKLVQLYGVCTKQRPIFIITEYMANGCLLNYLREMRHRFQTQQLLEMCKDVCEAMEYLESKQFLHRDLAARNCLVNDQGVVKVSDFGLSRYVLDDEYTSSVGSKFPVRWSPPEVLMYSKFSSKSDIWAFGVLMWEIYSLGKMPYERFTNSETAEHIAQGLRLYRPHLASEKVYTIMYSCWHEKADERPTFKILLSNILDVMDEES

## C[C@H]1CN(C2COC2)C[C@H](C)N1c1ccc(Nc2cc(-c3ccnc(-n4ccn5c6c(c(F)c5c4=O)CCCC6)c3CO)cn(C)c2=O)nc1 [Compound 3]
BTK recombinant protein
  pIC50: 8.52

## C[C@H]1CN(C)C[C@H](C)N1c1ccc(Nc2cc(-c3ccnc(-n4ccn5c6c(cc5c4=O)CC(C)(C)C6)c3CO)cn(C)c2=O)nc1 [Compound 6, 2-(3′-(hydroxymethyl)-1-methyl-6-oxo-5-((5-((2S,6S)-2,4,6-trimethylpiperazin-1-yl)pyridin-2-yl)amino)-1,6-dihydro-[3,4′-bipyridin]-2′-yl)-7,7-dimethyl-7,8-dihydro-2H-cyclopenta[4,5]pyrrolo[1,2-a]pyrazin-1(6H)-one]
BTK recombinant protein
  pIC50: 8.15

## CC(C)(/C=C(\C#N)C(=O)N1CCC[C@@H](n2nc(-c3ccc(Oc4ccccc4)cc3F)c3c(N)ncnc32)C1)N1CCN(C2COC2)CC1 [PRN1008, rilzabrutinib, reference compound]
[1]; 8 hours after modeling
  recovery rate of platelets: 40%
[1]; 24 hours after modeling
  recovery rate of platelets: 16%
